These results are taken from patent US20060235012A1, “Carboline and betacarboline derivatives for use as hdac enzyme inhibitors” (Chroma Therapeutics Limited, priority 2003, published 2006).

Molecules are shown by their SMILES.

The assay concerns the target histone deacetylase activity (HeLa nuclear extract). The assay is described as follows: HDAC fluorescent activity assay (Biomol Fluor de Lys), HeLa nuclear extract. Format: biochemical. To be noted: HeLa nuclear extract as HDAC source; Fluor de Lys substrate; IC50 range; read-out: Inhibitor Activity versus HDAC. The procedure:
The ability of compounds of Examples 1 to 17 to inhibit histone deacetylase activities was measured using the commercially available HDAC fluorescent activity assay from Biomol. In brief, the Fluor de Lys™ substrate, a lysine with an epsilon-amino acetylation, is incubated with the source of histone deacetylase activity (HeLa nuclear extract) in the presence or absence of inhibitor. Deacetylation of the substrate sensitises the substrate to Fluor de Lys™ developer, which generates a fluorophore. Thus, incubation of the substrate with a source of HDAC activity results in an increase in signal that is diminished in the presence of an HDAC inhibitor.
Data are expressed as a percentage of the control, measured in the absence of inhibitor, with background signal being subtracted from all samples, as follows:— % activity=((S^i−B)/(S^o−B))×100 where S^i is the signal in the presence of substrate, enzyme and inhibitor, S^o is the signal in the presence of substrate, enzyme and the vehicle in which the inhibitor is dissolved, and B is the background signal measured in the absence of enzyme.
IC50 values were determined by non-linear regression analysis, after fitting the results of eight data points to the equation for sigmoidal dose response with variable slope (% activity against log concentration of compound), using Graphpad Prism software.
Histone deacetylase activity from crude nuclear extract derived from HeLa cells was used for screening. The preparation, purchased from 4C (Seneffe, Belgium), was prepared from HeLa cells harvested whilst in exponential growth phase. The nuclear extract is prepared according to Dignam J D 1983 Nucl. Acid. Res. 11, 1475-1489, snap frozen in liquid nitrogen and stored at −80° C. The final buffer composition was 20 mM Hepes, 100 mM KCl, 0.2 mM EDTA, 0.5 mM DTT, 0.2 mM PMSF and 20% (v/v) glycerol.
For the compound `O=C(CCCCCC(=O)N1CCc2c([nH]c3ccccc23)C1)NO` [Example 2], the IC50 was less than 0.33 µM.

Consider `COc1ccc2[nH]c3c(c2c1)CCN(C(=O)CCCCCCC(=O)NO)C3` [Example 3], for which the IC50 was less than 0.33 µM.

In the case of `COC(=O)[C@H]1Cc2c([nH]c3ccccc23)CN1C(=O)CCCCCCC(=O)NO` [Example 4], the IC50 is less than 0.33 µM.

For `O=C(CCCCCCCC(=O)N1CCc2c([nH]c3ccccc23)C1)NO` [Example 5], the IC50 was less than 0.33 µM.

Turning to `COc1ccc2[nH]c3c(c2c1)CCN(C(=O)CCCCCC(=O)NO)C3` [Example 6], the IC50 is less than 0.33 µM.

As to `COc1ccc2[nH]c3c(c2c1)CCN(C(=O)CCCCCCCC(=O)NO)C3` [Example 7], the IC50 was less than 0.33 µM.

Turning to `O=C(CCCCCC(=O)N1CCc2c([nH]c3ccccc23)C1C(F)(F)F)NO` (stereo not shown) [Example 8], the IC50 is 0.33 to 1 µM.

In the case of `O=C(CCCCCCC(=O)N1CCc2c([nH]c3ccccc23)C1C(F)(F)F)NO` (stereo not shown) [Example 9], the IC50 was less than 0.33 µM.

Turning to `O=C(CCCCCCCC(=O)N1CCc2c([nH]c3ccccc23)C1C(F)(F)F)NO` (stereo not shown) [Example 10], the IC50 was less than 0.33 µM.

Regarding `COC(=O)[C@H]1Cc2c([nH]c3ccccc23)CN1C(=O)CCCCCC(=O)NO` [Example 11], the IC50 fell in the range of 0.33 to 1 µM.

Regarding `COC(=O)[C@H]1Cc2c([nH]c3ccccc23)CN1C(=O)CCCCCCCC(=O)NO` [Example 12], the IC50 lay within 0.33 to 1 µM.

`O=C(CCCCCC(=O)N1CCc2c([nH]c3ccccc23)C12CCCCC2)NO` [Example 13]: the IC50 was 0.33 to 1 µM.

`O=C(CCCCCCC(=O)N1CCc2c([nH]c3ccccc23)C12CCCCC2)NO` [Example 14]: the IC50 is less than 0.33 µM.

As to `O=C(CCCCCC(=O)N1Cc2[nH]c3ccccc3c2C[C@@H]1C(=O)O)NO` [Example 15], the IC50 is 0.33 to 1 µM.

With `O=C(CCCCCCC(=O)N1Cc2[nH]c3ccccc3c2C[C@@H]1C(=O)O)NO` [Example 16], the IC50 is less than 0.33 µM.

As to `O=C(CCCCCCCC(=O)N1Cc2[nH]c3ccccc3c2C[C@@H]1C(=O)O)NO` [Example 17], the IC50 is 0.33 to 1 µM.
